Like-named read-outs stand apart in the source and are kept apart here.
What was measured:
[1] = system: HeLa cervical carcinoma cells; assay: Cellular cytotoxicity assay (Alamar Blue), HeLa; type: cell-based; settings: Homo sapiens, 72 h, range stated for the listed group
Method: (§1) The anti-proliferative activity of the histone deacetylase inhibitory compounds as described herein, was evaluated using the following cell lines: HeLa and HeLa—KB (cervical carcinoma), H460 (non small cell lung cancer), A549 (non-small cell lung cancer), MCF7 (breast carcinoma), MCF10A (normal, non tumorigenic breast epithelial), MDA-MB468 (breast carcinoma), MDA-MB435 (breast carcinoma), MDA-MB231 (breast carcinoma), SKBR-3 (breast carcinoma), SKOV-3 (ovarial carcinoma), A-2780 (ovarial carcinoma), RKO (colon carcinoma), HCT-15 (colon carcinoma), HCT-116 (colon carcinoma), PC3 (prostate carcinoma), BPH1 (benign prostate hyperplasia), AsPC1 (pancreatic carcinoma), Cal27 (tongue carcinoma), A-431 (vulva carcinoma), HeclA (endometrial carcinoma), Saos-2 (osteosarcoma), U87MG (glioblastoma), WM266-4 (melanoma), K562 (chronic myeloid carcinoma), EOL1 (acute hypereosinophilic myeloid leukemia), CCRF-CEM and CCRF-CEM VCR1000 (acute lymphoblastic leukemia sensitive and resistant towards Vincristine). For quantification of cellular proliferation/living cells the Alamar Blue (Resazurin) cell viability assay was applied (O'Brien et al. Eur J Biochem 267, 5421-5426, 2000). In this assay Resazurin is reduced to the fluorescent resorufin by cellular dehydrogenase activity, correlating with viable, proliferating cells. The examples were dissolved as 20 mM solutions in dimethylsulfoxide (DMSO) and subsequently diluted in semi-logarithmic steps. Cell lines were seeded at respective density into 96 well flat bottom plates in a volume of 200 μl per well. 24 hours after seeding 1 μl each of the compound dilutions were added into each well of the 96 well plate. Each compound dilution was tested as quadruplicates. Wells containing untreated control cells were filled with 200 μl DMEM medium containing 0.5% v:v DMSO. The cells were then incubated with the substances for 72 hours at 37° C. in a humidified atmosphere containing 5% carbon dioxide. To determine the viability of the cells, 20 μl of an Resazurin solution (Sigma; 90 mg/l) were added. After 4 hours incubation at 37° C. the fluorescence was measured at an extinction of 544 nm and an emission of 590 nm. For the calculation of the cell viability the emission value from untreated cells was set as 100% viability and the emission rates of treated cells were set in relation to the values of untreated cells. Viabilities were expressed as % values. The corresponding IC50 values of the compounds for cytotoxic activity are determined from the concentration-effect curves by means of non-linear regression.

[2] = system: broad selection of non-malignant cell lines and fully transformed malignant cancer cell lines; assay: Anti-proliferative activity across cell line panel (Alamar Blue); type: cell-based; settings: mean over non-malignant and malignant cell lines
Method: as §1

A549 cell line = assay: Combination experiment with Trail in A549; type: cell-based; settings: example at about its IC50 combined with Trail
Method: A549 non-small cell lung cancer, MDA-MB468 breast cancer and […] colorectal cancer cell lines were pretreated with the examples for 4 h before adding the chemotherapeutic agents or Trail and further incubation for 72 h total. The IC50 values of these combinations were determined from concentration-effect curves and compared to IC50 values of cell treated with the anti-cancer agent only.

[3] = system: RKO colon carcinoma cells; assay: Cell-cycle dependent cytotoxicity, RKO exop21 cell system; type: cell-based; settings: Homo sapiens, 72 h, range stated for the listed group
Method: For determination of cell-cycle dependent cytotoxicity, the RKO exop21 cell system was applied (Schmidt et al. Oncogene 19: 2423-2429, 2000). Briefly, RKO cells with/without p21^waf1 expression (2×10^4 cells/well induced, 6×10^3 cells/well not induced) were treated with the examples for 72 h and metabolic activity quantified as described before. The expression of p21^waf1 was induced by treatment with Pronasterone A, causing a complete proliferation arrest of RKO cells in the G1 and G2 phases of the cell division cycle.

[4] = system: MDA-MB468 breast cancer cells; assay: Breast cancer cell differentiation assay (Nile Red, flow cytometry); type: cell-based; settings: 24 h; for Neutral & phospholipids (%): differentiated cells; for Phospholipids (%): undifferentiated cells
Method: For quantification of MDA-MB468 breast cancer cell differentiation (described by Munster et al. Canc. Res. 61(23), pp 8492, 2001), 1× E6 cells were seeded in 10 cm cell culture dishes and, after cultivation for 24 h, treated with HDI for further 24 h. Finally, cells were collected by trypsination, washed twice with PBS and resuspended in 1 ml of staining solution ([…] Nile Red in PBS). After incubation for at least 5 min at room temperature, cells were analysed by flow cytometry on a FACS Calibur device (Ex 488 nm, Em. at 530 nm/FL-1 and >630 nm/FL-3). From respective histograms the percentage of cells with fluorescence at 650 nm (phospholipids) and 530 nm+650 nm (phospho- and neutral lipids) were calculated. For microscopic analysis, MDA-MB468 cells were cultivated on two-well chamber slides, treated with test compound for 24 h, fixed with 1.5 vol % glutaraldehyde/PBS and finally treated with staining solution. After washing with PBS, cells were analysed by fluorescence microscopy.
The percentage of differentiated cells with neutral and phospholipids as well as undifferentiated cells with phospholipids only are summarized in the table 5.

[5] = arrested RKO cells, p21waf1 expressed, read-out: RKO arrested (p21^waf1 expressed) IC50
[6] = proliferating RKO cells, read-out: RKO proliferating IC50

**Q.** For O=C(/C=C/c1ccn(S(=O)(=O)c2ccc(CNCc3c[nH]c4ccccc34)cc2)c1)NO [Compound 12, (E)-N-Hydroxy-3-[1-(4-{[(1H-indol-3-ylmethyl)-amino]-methyl}-benzenesulfonyl)-1H-pyrrol-3-yl]-acrylamide], which IC50 [1] is on record?
**A.** The IC50 was 0.07 to 5 µM.

**Q.** Which IC50 [1] does the source give for O=C(/C=C/c1ccn(S(=O)(=O)c2ccc(-c3ccccc3)cc2)c1)NO [Compound 3, (E)-3-[1-(Biphenyl-4-sulfonyl)-1H-pyrrol-3-yl]-N-hydroxy-acrylamide] here?
**A.** The IC50 was 0.8 to 21.6 µM.

**Q.** What about the IC50 [2] of the same compound?
**A.** Its IC50 is 0.85 µM.

**Q.** And the “Effect of combination with Trail” value (A549 cell line)?
**A.** The value was “synergism is highly likely”.

**Q.** What about the IC50 [3, 5] of the same compound?
**A.** The IC50 was 0.45 to 15 µM.

**Q.** What about the IC50 [3, 6] of the same compound?
**A.** Its IC50 is 0.15 to 5.1 µM.

**Q.** And the “Neutral & phospholipids (%)” value ([4]; 0.6 μM)?
**A.** The value was 34.6%.

**Q.** What about the “Phospholipids (%)” value ([4]; 0.6 μM) of the same compound?
**A.** Its value is 62.6%.

**Q.** And the “Neutral & phospholipids (%)” value ([4]; 1.2 μM)?
**A.** Its value is 51.2%.

**Q.** And the “Phospholipids (%)” value ([4]; 1.2 μM)?
**A.** Its value is 45.7%.

**Q.** What does the source list for O=C(/C=C/c1ccn(S(=O)(=O)c2ccc(CN3CCOCC3)cc2)c1)NO [Compound 27, (E)-N-Hydroxy-3-[1-(4-morpholin-4-ylmethyl-benzenesulfonyl)-1H-pyrrol-3-yl]-acrylamide]?
**A.** IC50 [1]: 0.07 to 5 µM; melting point: 168 to 170 °C

**Q.** For CN(C)c1ccc(S(=O)(=O)n2ccc(/C=C/C(=O)Nc3ccccc3N)c2)cc1 [Compound 8, (E)-N-(2-Amino-phenyl)-3-[1-(4-dimethylamino-benzenesulfonyl)-1H-pyrrol-3-yl]-acrylamide], which IC50 [1] is on record?
**A.** The IC50 was 0.8 to 21.6 µM.

**Q.** Which IC50 [1] does the source give for O=C(/C=C/c1ccn(S(=O)(=O)c2ccc(-c3cn[nH]c3)cc2)c1)NO [Compound 19, (E)-N-Hydroxy-3-[1-[4-(1H-pyrazol-4-yl)-benzenesulfonyl]-1H-pyrrol-3-yl]acrylamide] here?
**A.** The IC50 was 0.07 to 5 µM.

**Q.** For NCc1ccc(S(=O)(=O)n2ccc(/C=C/C(=O)NO)c2)cc1 [Compound 17, (E)-3-[1-(4-Aminomethyl-benzenesulfonyl)-1H-pyrrol-3-yl]-N-hydroxy-acrylamide], which IC50 [1] is on record?
**A.** The IC50 was 0.07 to 5 µM.

**Q.** And the melting point?
**A.** The melting point was 227 to 228.6 °C.

**Q.** Which IC50 [1] does the source give for O=C(/C=C/c1ccn(S(=O)(=O)c2ccc(CNCc3ccncc3)cc2)c1)NO [Compound 16, (E)-N-Hydroxy-3-[1-(4-{[(pyridin-4-ylmethyl)-amino]-methyl}-benzenesulfonyl)-1H-pyrrol-3-yl]-acrylamide] here?
**A.** The IC50 was 0.07 to 5 µM.

**Q.** With O=C(/C=C/c1ccn(S(=O)(=O)c2ccc(CN(CCO)CCc3cc4ccccc4[nH]3)cc2)c1)NO [Compound 28, (E)-N-Hydroxy-3-{1-[4-({(2-hydroxy-ethyl)-[2-(1H-indol-2-yl)-ethyl]-amino}-methyl)-benzenesulfonyl]-1H-pyrrol-3-yl}-acrylamide] as the compound, how does the IC50 [1] read?
**A.** The IC50 was 0.07 to 5 µM.

**Q.** Which IC50 [1] does the source give for Nc1ccccc1NC(=O)/C=C/c1ccn(S(=O)(=O)c2ccc(-c3cccnc3)cc2)c1 [Compound 21, (E)-N-(2-Amino-phenyl)-3-[1-(4-pyridin-3-yl-benzenesulfonyl)-1H-pyrrol-3-yl]-acrylamide] here?
**A.** Its IC50 is 0.07 to 5 µM.

**Q.** And the melting point?
**A.** The melting point was 199.7 to 202.3 °C.

**Q.** For O=C(/C=C/c1ccn(S(=O)(=O)c2ccc(CNCc3ccc4[nH]ccc4c3)cc2)c1)NO [Compound 15, (E)-N-Hydroxy-3-[1-(4-{[(1H-indol-5-ylmethyl)-amino]-methyl}-benzenesulfonyl)-1H-pyrrol-3-yl]-acrylamide], which IC50 [1] is on record?
**A.** The IC50 was 0.07 to 5 µM.

**Q.** What does the source list for O=C(/C=C/c1ccn(S(=O)(=O)c2cccc(-c3ccccc3)c2)c1)NO [Compound 23, (E)-3-[1-(Biphenyl-3-sulfonyl)-1H-pyrrol-3-yl]-N-hydroxy-acrylamide]?
**A.** IC50 [1]: 0.07 to 5 µM; melting point: 114 to 159.4 °C

**Q.** Which IC50 [1] does the source give for Nc1ccccc1NC(=O)/C=C/c1ccn(S(=O)(=O)c2ccc(-c3ccncc3)cc2)c1 [Compound 20, (E)-N-(2-Amino-phenyl)-3-[1-(4-pyridin-4-yl-benzenesulfonyl)-1H-pyrrol-3-yl]-acrylamide] here?
**A.** Its IC50 is 0.07 to 5 µM.

**Q.** And the melting point?
**A.** The melting point was 244.2 to 246.5 °C.

**Q.** For CC(C)CNCc1ccc(S(=O)(=O)n2ccc(/C=C/C(=O)NO)c2)cc1 [Compound 14, (E)-N-Hydroxy-3-{1-[4-(isobutylamino-methyl)-benzenesulfonyl]-1H-pyrrol-3-yl}-acrylamide], which IC50 [1] is on record?
**A.** Its IC50 is 0.07 to 5 µM.

**Q.** Which IC50 [1] does the source give for O=C(/C=C/c1ccn(S(=O)(=O)c2ccc(CNCc3ccccc3)cc2)c1)NO [Compound 13, (E)-3-{1-[4-(Benzylamino-methyl)-benzenesulfonyl]-1H-pyrrol-3-yl}-N-hydroxy-acrylamide] here?
**A.** Its IC50 is 0.07 to 5 µM.

**Q.** Which results are given for CN(CCc1cc2ccccc2[nH]1)Cc1ccc(S(=O)(=O)n2ccc(/C=C/C(=O)NO)c2)cc1 [Compound 9, (E)-N-Hydroxy-3-(1-[4-(([2-(1H-indol-2-yl)-ethyl]-methyl-amino)-methyl)-benzenesulfonyl]-1H-pyrrol-3-yl)-acrylamide]?
**A.** IC50 [1]: 0.07 to 5 µM; IC50 [2]: 3.7 µM; Effect of combination with Trail (A549 cell line): synergism is highly likely; IC50 [3, 5]: 0.45 to 15 µM; IC50 [3, 6]: 0.15 to 5.1 µM; Neutral & phospholipids (%) ([4]; 3 μM): 71.2%; Phospholipids (%) ([4]; 3 μM): 25.3%; Neutral & phospholipids (%) ([4]; 6 μM): 64.6%; Phospholipids (%) ([4]; 6 μM): 27.9%

**Q.** What does the source list for O=C(/C=C/c1ccn(S(=O)(=O)c2ccc(-c3ccncc3)cc2)c1)NO [Compound 18, (E)-N-Hydroxy-3-[1-(4-pyridin-4-yl-benzenesulfonyl)-1H-pyrrol-3-yl]-acrylamide]?
**A.** IC50 [1]: 0.07 to 5 µM; melting point: 219.3 to 221.4 °C

**Q.** With O=C(/C=C/c1ccn(S(=O)(=O)c2ccc(-n3cccn3)cc2)c1)NO [Compound 25, (E)-N-Hydroxy-3-[1-(4-pyrazol-1-yl-benzenesulfonyl)-1H-pyrrol-3-yl]-acrylamide] as the compound, how does the IC50 [1] read?
**A.** Its IC50 is 0.07 to 5 µM.

**Q.** What about the melting point of the same compound?
**A.** Its melting point is 160.7 to 166.6 °C.

**Q.** For O=C(/C=C/c1ccn(S(=O)(=O)c2ccc(CNCc3cccnc3)cc2)c1)NO [Compound 11, (E)-N-Hydroxy-3-[1-(4-{[(pyridin-3-ylmethyl)-amino]-methyl}-benzenesulfonyl)-1H-pyrrol-3-yl]-acrylamide], which IC50 [1] is on record?
**A.** The IC50 was 0.07 to 5 µM.

**Q.** For Nc1ccccc1NC(=O)/C=C/c1ccn(S(=O)(=O)c2ccc(-c3cn[nH]c3)cc2)c1 [Compound 22, (E)-N-(2-Amino-phenyl)-3-{1-[4-(1H-pyrazol-4-yl)-benzenesulfonyl]-1H-pyrrol-3-yl}-acrylamide], which IC50 [1] is on record?
**A.** The IC50 was 0.07 to 5 µM.

**Q.** What about the melting point of the same compound?
**A.** Its melting point is 232.3 to 240.9 °C.

**Q.** With Nc1ccccc1NC(=O)/C=C/c1ccn(S(=O)(=O)c2ccc(-c3ccccn3)s2)c1 [Compound 26, (E)-N-(2-Amino-phenyl)-3-[1-(5-pyridin-2-yl-thiophene-2-sulfonyl)-1H-pyrrol-3-yl]-acrylamide] as the compound, how does the IC50 [1] read?
**A.** The IC50 was 0.07 to 5 µM.

**Q.** What about the melting point of the same compound?
**A.** Its melting point is 171.3 to 174.7 °C.
